Values quoted from earlier work as cited in patent US9920347B2, “Methods for producing virus particles with simplified glycosylation of surface proteins” (priority 2010, dated 2018).

Columns and labels:
[1] = target: alpha-glucosidase amyloglucosidase (Aspergillus niger, UniProt P69328); settings: read-out: concentration giving 50% inhibition of amyloglucosidase
intact cells = settings: glycoproteins with Man7-9(GlcNAc)2 structures accumulate
[2] = test system: animal Golgi enzyme, mannosidase I
[3] = test system: rat epididymal α-mannosidase
Golgi mannosidase II = target: T1, Golgi mannosidase II (Homo sapiens, UniProt Q16706)
T1 sequence (Q16706 1-1144): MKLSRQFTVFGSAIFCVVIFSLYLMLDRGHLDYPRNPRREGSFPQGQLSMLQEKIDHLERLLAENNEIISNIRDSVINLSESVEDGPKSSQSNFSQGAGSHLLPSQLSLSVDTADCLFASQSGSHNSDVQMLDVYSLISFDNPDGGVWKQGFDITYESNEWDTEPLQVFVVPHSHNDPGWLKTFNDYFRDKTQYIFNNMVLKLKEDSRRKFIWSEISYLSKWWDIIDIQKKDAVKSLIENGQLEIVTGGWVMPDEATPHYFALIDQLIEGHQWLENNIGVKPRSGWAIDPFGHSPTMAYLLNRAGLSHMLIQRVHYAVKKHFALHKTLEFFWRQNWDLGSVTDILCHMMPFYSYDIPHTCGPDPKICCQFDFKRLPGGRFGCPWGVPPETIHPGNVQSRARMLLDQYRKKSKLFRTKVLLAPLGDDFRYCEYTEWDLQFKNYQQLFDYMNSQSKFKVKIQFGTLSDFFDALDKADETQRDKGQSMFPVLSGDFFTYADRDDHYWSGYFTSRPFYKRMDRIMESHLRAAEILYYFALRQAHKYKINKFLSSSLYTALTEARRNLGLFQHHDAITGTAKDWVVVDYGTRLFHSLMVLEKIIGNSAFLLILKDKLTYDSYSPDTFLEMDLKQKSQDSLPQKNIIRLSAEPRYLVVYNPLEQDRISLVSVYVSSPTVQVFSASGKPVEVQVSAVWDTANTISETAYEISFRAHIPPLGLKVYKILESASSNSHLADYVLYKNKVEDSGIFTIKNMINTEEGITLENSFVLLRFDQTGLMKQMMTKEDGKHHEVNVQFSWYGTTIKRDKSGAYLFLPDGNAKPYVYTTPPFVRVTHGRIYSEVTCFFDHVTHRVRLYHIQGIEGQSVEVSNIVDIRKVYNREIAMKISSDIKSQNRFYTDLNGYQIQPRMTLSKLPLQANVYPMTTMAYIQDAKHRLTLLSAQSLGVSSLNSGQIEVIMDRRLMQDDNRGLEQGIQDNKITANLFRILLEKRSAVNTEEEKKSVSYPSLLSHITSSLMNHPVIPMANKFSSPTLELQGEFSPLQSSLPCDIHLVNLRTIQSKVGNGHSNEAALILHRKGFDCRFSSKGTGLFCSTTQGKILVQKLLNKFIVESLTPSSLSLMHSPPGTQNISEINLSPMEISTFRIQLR

Sequence of alpha-glucosidase amyloglucosidase (P69328 25-640): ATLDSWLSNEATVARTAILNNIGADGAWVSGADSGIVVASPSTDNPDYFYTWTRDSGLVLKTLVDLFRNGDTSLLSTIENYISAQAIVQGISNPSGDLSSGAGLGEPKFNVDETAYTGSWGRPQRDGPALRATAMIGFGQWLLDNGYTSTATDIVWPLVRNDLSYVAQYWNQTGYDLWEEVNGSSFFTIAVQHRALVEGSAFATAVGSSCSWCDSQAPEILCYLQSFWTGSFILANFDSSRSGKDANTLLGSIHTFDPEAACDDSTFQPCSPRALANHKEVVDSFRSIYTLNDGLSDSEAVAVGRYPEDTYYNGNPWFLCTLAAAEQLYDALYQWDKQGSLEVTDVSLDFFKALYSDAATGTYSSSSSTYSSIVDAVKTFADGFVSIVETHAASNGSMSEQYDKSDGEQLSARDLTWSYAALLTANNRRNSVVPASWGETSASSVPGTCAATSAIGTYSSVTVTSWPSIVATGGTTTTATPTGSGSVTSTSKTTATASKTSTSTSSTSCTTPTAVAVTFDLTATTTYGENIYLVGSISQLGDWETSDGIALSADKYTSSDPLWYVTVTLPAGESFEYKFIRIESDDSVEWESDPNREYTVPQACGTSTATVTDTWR

OC[C@@H]1[C@@H](O)[C@H](O)[C@H]2[C@@H](O)CCN21 [Australine]
IC50 [1]: 5.8 µM | inhibition of beta-glucosidase (beta-glucosidase): did not inhibit | inhibition of alpha-mannosidase (alpha-mannosidase): did not inhibit | inhibition of beta-mannosidase (beta-mannosidase): did not inhibit | inhibition of alpha-galactosidase (alpha-galactosidase): did not inhibit | inhibition of beta-galactosidase (beta-galactosidase): did not inhibit

O[C@H]1[C@H](O)[C@@H](O)CN2CC[C@H](O)[C@H]12 [Castanospermine]
inhibition of alpha-glucosidase activities (alpha-glucosidase): inhibits | inhibition of dengue virus infection (dengue virus): inhibits

OC[C@H]1NC[C@@H](O)[C@@H](O)[C@@H]1O [Deoxymannojirimycin]
inhibition of rat liver mammosidase I (rat liver mammosidase I): fairly potent inhibitor | effect on synthesis of complex types of N-linked oligosaccharides (intact cells): blocked the synthesis of complex types of N-linked oligosaccharides | prevention of formation of complex chains (cultured mammalian cells; 50 μg/ml): does not prevent the formation of all complex chains

O=C1N[C@@H]2[C@@H](O)[C@@H](O)[C@H](O)[C@@H](CO)N2C1=O [Kifunensine]
inhibition of mannosidase I [2]: inhibits | shift of N-linked oligosaccharides from complex chains to Man9(GlcNAc)2 structures (cultured mammalian cells; 1 μg/ml or higher): complete shift

CS[C@@H]1[C@@H](N)[C@@H](O)[C@@H](O)[C@H]1O [Mannostatin A]
inhibition of rat epididymal α-mannosidase [3]: potent inhibitor

O[C@H]1[C@H]2[C@H](O)CCCN2C[C@H]1O [Swainsonine]
inhibition of Golgi mannosidase II (Golgi mannosidase II): potent inhibitor | effect on mannosidase 1 (mannosidase 1): no effect
